Results: PubChem BioAssay AID2305 (GlaxoSmithKline (GSK), 2010)
Values joined by “and” are separate entries in the source; they are usually repeats but may differ in a detail not shown here. Equal values may be shown once.

Each molecule was assayed on P. falciparum 3D7 growth, pLDH absorbance (assay: P. falciparum 3D7 growth inhibition, dose response, strain 3D7 (AID 2305)).

SMILES	IC50
CCCCCC(C)C(C)c1cc(O)c2c(c1)OC(C)(C)CC2=Cc1ccncc1 (stereo unspecified)	210 nM
Cc1[nH]c(C)c(-c2ccc(OCCSc3ccncc3)cc2)c(=O)c1Br	390 nM
CC(=O)c1cccc(Nc2nc3c(C#N)c(OCc4cc(Cl)cc(Cl)c4)ccc3[nH]2)c1	870 nM
O=C(NCc1ccccc1)Nc1ccc(-c2cccc(-c3nc4ccc(C(F)(F)F)cc4[nH]3)c2)cc1	660 nM
COc1cccc2c(NN=Cc3ccccc3[N+](=O)[O-])cc(C)nc12	420 nM
CCCCCCCc1c(C)[nH]c2cc(OC)ccc2c1=O	60 nM
CCNC(=O)Nc1cccc(-c2ccc(-c3nc4c(C)cccc4[nH]3)s2)c1	770 nM
CCOC(=O)c1ccc(N=C2SC(=Cc3cc(Br)ccc3O)C(=O)N2C)cc1	1000 nM
CN1CCCN(Cc2cccc(-c3ccc(CNC(=O)c4cccc(Cl)c4)c(F)c3)c2)CC1	190 nM
Cc1ccc(/C=C/C(=O)NCCCCCN2CCN(C(=O)Nc3ccc(Cl)c(C(F)(F)F)c3)CC2)cc1	1110 nM
CCOc1ccc(C=CC(=O)Nc2ccc3nc(N4CCN(C)CC4)cc(C)c3c2)cc1OC	400 nM
COCCNCc1cccc(-c2cccc(CN(C(=O)Nc3ccccc3)C3CCN(Cc4ccccc4)CC3)c2)c1	130 nM
CN1CCN(c2ccc3nc(-c4ccc5nc(-c6ccc([N+](=O)[O-])c(N)c6)[nH]c5c4)[nH]c3c2)CC1	100 nM
CN(CCCN(C)c1cc(NC(=O)c2ccc(F)cc2)ccn1)Cc1cccc(F)c1	1220 nM
Cc1ccc(-n2c(=O)c3c(n4c(SC(C)C)nnc24)-c2ccccc2CC32CCCCC2)cc1	950 nM
CC(C)(C)c1ccc(CNC(=O)c2cc(CNC3CCNCC3)ccc2O)cc1	710 nM
ON=C1CCc2cc(-c3cc(-c4ccc(OC5CCNCC5)cc4)oc3-c3ccncc3)ccc21	160 nM
CC(=O)N(C)c1ccc(C(=O)Nc2cccc(-c3cccc(-c4nc5c(C)cccc5[nH]4)c3)c2)cc1	620 nM
CCOc1ccc(-c2n[nH]c(C(F)(F)F)c2-c2ccccc2OC)c(O)c1	1140 nM
COCCNCc1cccc(-c2ccc3c(Nc4cc(O)c(Cl)cc4F)ccnc3c2)c1	110 nM
CN1CCC(Oc2ccc(CN3CC[C@H](NC(=O)c4cc(F)cc(F)c4)C3)c3ccccc23)C1 (stereo partly specified)	840 nM
Cc1[nH]c2c(C)cc(NS(C)(=O)=O)cc2c1C1CCN(CC2CCN(C(=O)/C=C/c3ccc(Cl)c(Cl)c3)CC2)CC1	240 nM
CC(C)(C)c1ccc(CNC(=O)c2ccc(CNC3CCC(N)CC3)s2)cc1 (stereo unspecified)	530 nM
CSc1nccc(-c2ccc(S(=O)(=O)NC3CCC(CN4CCC(c5c[nH]c6ccccc56)CC4)CC3)s2)n1 (stereo unspecified)	250 nM and 810 nM

SMILES	IC50
CCCNC(=O)c1cncc(-c2ccc(CNCCCc3ccccc3)cc2)c1	690 nM
COc1ccccc1N1CCN(C(C(=O)NCc2ccc3c(c2)OCO3)c2ccc3c(c2)OCCCO3)CC1 (stereo unspecified)	1120 nM
COc1ccc(N2CCN(CCCNC(=O)c3ccc(NC(=O)c4cc(Cl)cc(Cl)c4)cc3)CC2)c(OC)c1	270 nM
c1ccc(Oc2ccc(Nc3ccnc4cc(-c5cccc(CN6CCOCC6)c5)ccc34)cc2)cc1	340 nM
CC(Cc1ccc(CSC(C)C)cc1)NCC(O)c1cccc(Cl)c1 (stereo unspecified)	600 nM
CCCc1ccc2c(c1O)CCC(N(CCC)CCC)C2 (stereo unspecified)	890 nM
COc1cccc(C23N=C(Nc4nc5ccccc5[nH]4)NC2(c2cccc(OC)c2)NC(Nc2nc4ccccc4[nH]2)=N3)c1 (stereo unspecified)	160 nM
COc1ccc(-c2cc(C(=O)Nc3ccc(CCCN(C)Cc4ccc(OC)c(OC)c4)cc3)c3ccccc3n2)cc1	700 nM
Cc1ncccc1C(=O)Nc1ccc(-c2cccc(-c3nc4c(C)cccc4[nH]3)c2)cc1	730 nM
COc1ccc(CCOc2c(C)nc(N)nc2N)cc1OC	70 nM
COc1cc2ncnc(Nc3ccc(OCc4ccccc4Br)c(OC)c3)c2cc1OC	430 nM
CCCCOc1cc(OC)c2ccccc2c1CCNCCCCNCCc1c(OCCCC)cc(OC)c2ccccc12	1050 nM
O=C(/C=C/c1ccc(Cl)c(Cl)c1)NCCCCCN1CCCN(C(=O)Nc2ccc([N+](=O)[O-])cc2)CC1	620 nM
COc1ccc(C2CC(=O)C3=C(C2)NC(C)=C(C(=O)OC2CCCC2)C3c2cccc(O)c2)cc1 (stereo unspecified)	1010 nM
O=C(Nc1ccc(Br)cc1)Nc1ccc(Cn2ncc(N3CCCNCC3)c(Cl)c2=O)cc1	1140 nM
O=C(c1cccc(Br)c1)N1CCN(c2ccc([N+](=O)[O-])c(NC3CC3)c2)CC1	940 nM
O=C(Nc1ccc(Cl)c(C(F)(F)F)c1)N[C@H]1CCN(CCCCCNC(=O)[C@@H]2C[C@H]2c2ccc(Cl)c(Cl)c2)C1	1080 nM
CCc1c[nH]c2c(N3CCCC3=O)cc(C(=O)N[C@@H](Cc3ccccc3)[C@H](O)CNC(C)(C)CCCC(C)C)cc12	510 nM
CCC(C)CNC(=O)CN1CN(c2ccccc2)C2(CCN(C(=O)c3ccc(Br)cc3)CC2)C1=O (stereo unspecified)	1070 nM
CCc1cn(C)c2c(N3CCCC3=O)cc(C(=O)N[C@@H](Cc3ccccc3)[C@H](O)CNC(C)(C)c3cccc(C(F)(F)F)c3)cc12	110 nM
COc1ccccc1N1CCN(CCCCNC(=O)c2ccc(NC(=O)c3cc(Cl)cc(Cl)c3)cc2)CC1	460 nM
O=C(Nc1ccccc1)N(Cc1cccc(-c2ccc(CNCCc3ccccc3)cc2)c1)C1CCN(Cc2ccccc2)CC1	350 nM
Cc1cc(N[C@@H](Cc2ccccc2)C(=O)NCCc2ccccc2)nc(NCCc2cccs2)n1	710 nM
O=C1COc2ccc3ccccc3c21	700 nM

SMILES	IC50
Cc1cc(NN=Cc2ccccc2)c2cc(F)ccc2n1	580 nM
CCCCCCNc1cc(C)nc2ccc(OC)cc12	550 nM
CCN(CC)CCOc1ccc(NC(=O)c2oc3ccccc3c2C=Cc2ccccc2)cc1	220 nM
CC[C@H](C)CNC(=O)c1cncc(-c2cccc(CNCCCc3ccccc3)c2)c1	1170 nM
COc1ccc2nccc([C@@H](O)CN3CCC(NCCOc4ccccc4[N+](=O)[O-])CC3)c2c1	380 nM
COC(=O)/C=C/c1ccc(CC(C)NCC(O)c2cccc(C(F)(F)F)c2)cc1 (stereo unspecified)	770 nM
CC(C)(C)COc1ccc2c(N)n[nH]c2c1	790 nM
C=C[C@H]1CN2CC[C@H]1C[C@H]2[C@H](O)c1cc(/C=C/c2ccc(F)cc2)nc2ccc(OC)cc12	30 nM
CCCCCCCCOc1ccc(N2C(N)=NC(N)=NC2(C)C)cc1	500 nM
COc1ccc2nccc([C@@H](O)CN3CCC(NCc4cc5ccc(C#N)cc5[nH]4)CC3)c2c1	100 nM
CC(C)(C)OC(=O)NCc1ccc(Nc2nnc(-c3cccc(C(=O)NCc4cc(C(F)(F)F)cc(C(F)(F)F)c4)c3)o2)cc1	860 nM
CCOC(=O)c1ccc(OCc2ccc(-c3ccccc3)cc2)cc1	810 nM
CCCc1cc(NCc2ccncc2)nc(Nc2ccc(F)cc2)n1	1120 nM
CS(=O)(=O)CCNCc1cccc(-c2cc3c(Nc4ccc(OCc5ccccc5)cc4)ncnc3cn2)c1	730 nM
CS(=O)(=O)N(c1ccccc1)c1cc(C(=O)N[C@@H](Cc2ccccc2)[C@H](O)CNC2CC2)cc(N2CCCC2=O)c1	300 nM
c1ccc2c(c1)CN(CC1CC1)CC1(CCN(Cc3c[nH]c4cnccc34)CC1)O2	900 nM
CN(C)c1ccc(-c2ccc(C(=O)NC3CCN(Cc4ccc(C(C)(C)C)cc4)CC3)s2)cc1	970 nM
Cc1ccc2c(c1C)NC(=O)C21NN=C(c2ccccc2)S1 (stereo unspecified)	750 nM
Cc1ccoc1C(=O)Nc1cccc(-c2cccc(-c3nc4ccccc4[nH]3)c2)c1	1220 nM
COc1ccc(O)cc1/C=N/Nc1ccnc2cc(Cl)ccc12	540 nM
O=C(Nc1ccnc2ccccc12)NC1CCN(Cc2ccccc2)CC1	990 nM
O=C(NCCOc1ccccc1)[C@H](Cc1ccccc1)Nc1ccnc(NCC2CCCCC2)n1	1200 nM
CC(C)(C)OC(=O)[C@H](CC(N)=O)NC(=O)c1ccc(-c2ccc(-c3nc4ccc(C(F)(F)F)cc4[nH]3)s2)cc1	270 nM
CNc1nc(NN=Cc2cc([N+](=O)[O-])c(Cl)cc2Cl)nc(Nc2cccc(C(F)(F)F)c2)n1	730 nM

SMILES	IC50
CC[C@H](C)CNC(=O)c1ccnc(-c2ccc(CNC3Cc4ccccc4C3)cc2)c1	570 nM
C[C@@H]1CN(c2cnn(Cc3ccc(NC(=O)Nc4ccc(F)cc4[N+](=O)[O-])cc3)c(=O)c2Cl)C[C@H](C)N1	810 nM
CCN(CC)CCN1C(=O)C(O)(c2ccccc2Cl)c2c1cc(C(N)=O)cc2C(F)(F)F (stereo unspecified)	700 nM
CC(C)(C)c1cc(C(=O)N2CCN(c3ccc(C(F)(F)F)cn3)CC2)n(Cc2ccc(F)cc2)n1	980 nM
OC(CNc1ccnc(Nc2cccc(Cl)c2)n1)c1cccc(C(F)(F)F)c1 (stereo unspecified)	510 nM
Cc1ccc2[nH]cc(/C=C/C(=O)NC3CCC(CCN4CCc5ccc(C#N)cc5CC4)CC3)c2c1 (stereo unspecified)	920 nM
CCOc1ccc(C(C)NC(=O)Nc2ccccc2)cc1OCC (stereo unspecified)	900 nM
Cc1ccc2nc(NC#N)[nH]c2c1	1150 nM
CCOc1c(C)cc(C(F)(F)F)cc1CNCCCNc1cc(=O)c2ccccc2[nH]1	160 nM
COc1ccc(-c2cccc(NC(=O)c3cccc(F)c3)c2)cc1CN1CCCN(C)CC1	600 nM
Cc1ccccc1C1CCN(C2CCC(NC(=O)c3ccc(-c4cc(C(F)(F)F)nn4C)s3)CC2)CC1 (stereo unspecified)	850 nM
CC1CC(C)CN(CCCNc2ccc(C(=O)Nc3ccc(C(F)(F)F)cc3)cc2[N+](=O)[O-])C1 (stereo unspecified)	200 nM
CCCCCCNC(=O)C1Cc2c([nH]c3ccccc23)C2(CCN(CCc3ccccc3)CC2)N1 (stereo unspecified)	1140 nM
Cc1cc(-c2nc3ccc(C(=N)N)cc3[nH]2)c(C)cc1-c1nc2ccc(C(=N)N)cc2[nH]1	400 nM
NC(=O)CN1CC=C(c2c[nH]c3ccc(Br)cc23)CC1	1100 nM
Cc1cnc(Nc2cccc(CCN3CCOCC3)c2)nc1NC(C)C	740 nM
COc1cccc2cc(C(=O)N[C@@H](CC(C)C)C(=O)N[C@H](/C=N/NC(=O)OC(C)(C)C)Cc3ccccc3)oc12	300 nM
COc1ccc(C)cc1NC(=O)CSc1nc2cccnc2n1C1CCCCC1	540 nM
CCc1ccc(CN2CCC(CNC(=O)c3cc(-c4cccc(C(F)(F)F)c4)cs3)C2)cc1 (stereo unspecified)	750 nM
O=C(/C=C/c1cccc(Cl)c1)NC1CCC(CN2CCC(c3c[nH]c4ccccc34)CC2)CC1 (stereo unspecified)	750 nM and 720 nM
Cc1cccnc1Nc1nc(-c2ccccn2)cs1	690 nM
CCC(Cc1cnc2nc(N)nc(N)c2n1)c1ccc(C(=O)N[C@@H](CCC(=O)O)C(=O)O)cc1 (stereo partly specified)	40 nM
N#Cc1ccc(NC(=O)N2CCCN(CCCCCNC(=O)/C=C/c3ccc(Cl)c(Cl)c3)CC2)cc1	770 nM
Cc1ccc(C(=O)Nc2ccc(Nc3ccnc4cc(-c5ccccn5)ccc34)cc2O)cc1	110 nM
